In US11236401B2, “Sensors for detection and quantification of microbiological protein secretion” (SenseUp GmbH, priority 2015, dated 2022):
Where a SMILES comes first, the peptide text is derived from it. Bridges are numbered along the chain shown (N, C = ends). [ ]: non-standard residue; d: D form. The star is where a group is joined. Ileψ(thiazoline)Cys = CC[C@H](C)[C@H](N)C1=N[C@H](C(=O)*)CS1; dOrn = NCCC[C@@H](N)C(=O)O

Experiments:
[1] = test system: strain ATCC 13032 pSen1325; assay: In vivo EYFP fluorescence of sensor strain ATCC 13032 pSen1325 (cg1325 promoter) as a function of antibiotic concentration, BioLector; format: cell-based, Corynebacterium glutamicum; settings: ATCC 13032 pSen1325 in CGXII medium, 24 hours; antibiotic added after 4 hours; Vancomycine 0; 1.25; 2.5; 5; 10; 15; 20 μg/ml; Bacitracin 0; 0.25; 0.5; 1; 2; 4 μg/ml; excitation 485 nm, emission 520/10 nm
Protocol: (§1) c) Detection of the fluorescence as a function of the concentration of a compound that is characterized by an antibiotic activity due to its property to damage the membrane of a bacterial cell.
(§2) The examination of in vivo fluorescence emission was carried out by culturing the cells of strain ATCC 13032 pSen1325 with 0.8 ml CGXII medium (Keilhauer et al, 1993, J. Bacteriol. 175: 5595-603) in microtiter dimension (Flowerplate® MTP-48-B) in the BioLector system (m2p-labs GmbH, 52499 Baesweiler, Germany). 13 cultures with cells of strain ATCC 13032 pSen1325 were inoculated to an OD of 0.1 and cultured for 24 hours. After 4 hours the antibiotic substances Vancomycine or Bacitracine were added to the cultures. Vancomycine-concentrations were adjusted to 0; 1.25; 2.5; 5; 10; 15; 20 μg/ml and Bacitracin-concentrations were adjusted to 0; 0.25; 0.5; 1; 2; 4 μg/ml. Every 10 minutes the cell densities of cultures and the fluorescence were measured. The fluorescence was excited with light of wavelength 485 nm, the fluorescence emission measurement of EYFP was carried out at 520/10 nm. The fluorescence of the cultures has been digitally recorded by means of the BioLection V.2.4.1.0 software.

[2] = test system: strain ATCC 13032 pSen0706; assay: In vivo EYFP fluorescence of sensor strain ATCC 13032 pSen0706 (cg0706 promoter) as a function of antibiotic concentration, BioLector; format: cell-based, Corynebacterium glutamicum; settings: ATCC 13032 pSen0706 in CGXII medium, 24 hours; antibiotic added after 4 hours; Vancomycine 0; 1.25; 2.5; 5; 10; 15; 20 μg/ml; Bacitracin 0; 1; 4 μg/ml; excitation 485 nm, emission 520/10 nm; FIGS. 1 and 2
Protocol: as §1
as §2, with “13032 pSen0706” for “13032 pSen1325”, “Germany). This system allows for the parallel cultivation of 48 cultures and regular and automated optical measurements of the culture growth as well as the fluorescence. 10” for “Germany). 13”, “0;” for “0; 0.25; 0.5;”, “1;” for “1; 2;”

SMILES	fluorescence emission of cultures as a function of the concentration of the compound [1]	fluorescence emission of cultures as a function of the concentration of the compound [2]
CC[C@H](C)[C@H](N)C1=N[C@H](C(=O)N[C@@H](CC(C)C)C(=O)N[C@H](CCC(=O)O)C(=O)N[C@H](C(=O)N[C@H]2CCCCNC(=O)[C@H](CC(N)=O)NC(=O)[C@@H](CC(=O)O)NC(=O)[C@H](Cc3cnc[nH]3)NC(=O)[C@@H](Cc3ccccc3)NC(=O)[C@H]([C@@H](C)CC)NC(=O)[C@@H](CCCN)NC2=O)[C@@H](C)CC)CS1 [Bacitracine] ({Ileψ(thiazoline)Cys}-L[dE]IK[dOrn]I[dF]H[dD]N; lactam 4-C)	fluorescence emissions of cultures with different Vancomycine or Bacitracine concentrations also differs	fluorescence emissions of cultures with different Vancomycine or Bacitracine concentrations also differs
CN[C@H](CC(C)C)C(=O)N[C@H]1C(=O)N[C@@H](CC(N)=O)C(=O)N[C@H]2C(=O)N[C@H]3C(=O)N[C@H](C(=O)N[C@H](C(=O)O)c4cc(O)cc(O)c4-c4cc3ccc4O)[C@H](O)c3ccc(c(Cl)c3)Oc3cc2cc(c3O[C@@H]2O[C@H](CO)[C@@H](O)[C@H](O)[C@H]2O[C@H]2C[C@](C)(N)[C@H](O)[C@H](C)O2)Oc2ccc(cc2Cl)[C@H]1O [Vancomycine]	fluorescence emissions of cultures with different Vancomycine or Bacitracine concentrations also differs	fluorescence emissions of cultures with different Vancomycine or Bacitracine concentrations also differs
